“Also recorded” adds a separate entry of the source.
System: E16.5 cortical neurons
Assay: Protection of cortical neurons from axonal degeneration induced by aPKC PS
Format: cell-based, mouse
Details: 10 μM taxol 2 h prior to and during 2 h treatment of 7 μM aPKC PS
Method: Cerebral cortical cell culture—E16.5 mouse pregnant females were sacrificed by CO2 asphyxia and cervical dislocation. Embryos were removed from uterine horns. Skin, skull, and meninges were removed from embryo heads. The cortex was dissected in L-15 medium (Sigma), digested with 0.025% trypsin/0.221 mM EDTA (Mediatech) for 20 min followed by incubation in 5% horse serum prepared in L-15 medium for 5 min to inhibit trypsin. […]
Image acquisition and analysis—All images were acquired on an inverted Zeiss LSM510 confocal microscope with LSM acquisition software (Carl Zeiss Microscopy). For quantification of P-PKCζ T410 immunoreactivity in cell cultures, exposure time was adjusted to be under the saturation level for the highest immunofluorescence signal and was conserved between the different samples. Mean immunofluorescence intensity level in neuronal cell bodies was measured using FiJi-ImageJ software (NIH). All quantifications were performed on 10 non-overlapping fields in cell cultures from at least three independent experiments and on four non-consecutive sections from at least three animals for in vivo experiments. […]

## CC(=O)O[C@H]1C(=O)[C@@]2(C)[C@H]([C@H](OC(=O)c3ccccc3)[C@]3(O)C[C@H](OC(=O)[C@H](O)[C@@H](NC(=O)c4ccccc4)c4ccccc4)C(C)=C1C3(C)C)[C@]1(OC(C)=O)CO[C@@H]1C[C@@H]2O [taxol, reference compound]
  axon degeneration induced by aPKC inhibition: reduced; also recorded: partially prevented
